Values quoted from earlier work, collected in patent US8252778B2, “Highly fluorinated oils and surfactants and methods of making and using same” (University of Utah Research Foundation, priority 2006, dated 2012).

Target: sstr2 (Homo sapiens, UniProt P30874)
Sequence (P30874 whole entry, species assumed): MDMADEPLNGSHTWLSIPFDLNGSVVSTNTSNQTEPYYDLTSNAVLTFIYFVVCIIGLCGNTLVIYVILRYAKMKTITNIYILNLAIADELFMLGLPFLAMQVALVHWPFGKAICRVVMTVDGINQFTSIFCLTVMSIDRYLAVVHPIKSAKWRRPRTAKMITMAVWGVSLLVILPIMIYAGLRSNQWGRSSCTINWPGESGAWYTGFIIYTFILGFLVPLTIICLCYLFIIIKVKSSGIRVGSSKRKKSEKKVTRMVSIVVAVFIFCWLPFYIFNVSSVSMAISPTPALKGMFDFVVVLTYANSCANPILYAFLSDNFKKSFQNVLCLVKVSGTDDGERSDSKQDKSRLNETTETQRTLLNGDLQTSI

C[C@@H](O)[C@@H]1NC(=O)[C@H](CCCCN)NC(=O)[C@@H](Cc2c[nH]c3ccccc23)NC(=O)[C@H](Cc2ccccc2)NC(=O)[C@@H](NC(=O)[C@H](N)Cc2ccccc2)CSSC[C@@H](C(=O)N[C@H](CO)[C@@H](C)O)NC1=O [octreotide, DPhe1-c[Cys2-Phe3-DTrp-4-Lys5-Thr6-Cys7]-Thr8-NH2]
affinity and specificity for sstr2: high affinity and specificity
